# “Also recorded” adds a separate entry of the source.
# How the values were obtained:
# [1] = tested on: Jak2/Stat5a signaling pathway; assay: Prolactin-stimulated Jak2/Stat5a signaling in rat Nb2 cells (phosphotyrosine Western blot); type: cell-based; details: increasing concentration, PRL stimulated
# Protocol: Solubilization of membrane proteins, immunoprecipitation, and Western blot analysis. Frozen cell pellets were thawed on ice and solubilized in 1% TX-100 lysis buffer (10^8 cells/ml) and clarified by centrifugation, as previously described.^16 For human T-cells, supernates were incubated rotating end over end for 2 hours at 4° C. with either 5 μl/ml polyclonal rabbit antisera raised against peptides derived from the unique COOH-termini of Jak3 (amino acid [a.a.] 1104-1124), carboxyl termini of human Stat5a (a.a. 775-794) or Stat5b (a.a. 777-787).^26 Ab and immunoprecipitated proteins were captured by incubation for 30 minutes with Protein A-Sepharose beads (Pharmacia, Piscataway, N.J.), sedimented for purification, and eluted by boiling in 2×SDS-sample buffer (20% Glycerol, 10% 2-Mercaptoethanol, 4.6% SDS, 0.004% Bromophenol blue in 0.125 M Tris pH 6.8) for 4 minutes. For phosphoMapk assays, approximately 25 μg of total cell lysate was dissociated in SDS-sample buffer and separated on 10% (all others on 7.5%) SDS-PAGE under reducing conditions. […]
# (§1) In FIG. 9A, it can be seen that NC1153 inhibits Jak3 driven transcription factor-Stat5a/b in PHA activated T-cells treated with increasing concentrations of NC1153 in a dose dependent manner as measured via EMSA analysis (upper panel). […]
# [2] = tested on: LEW donor or third-party BUF heart allografts; assay: Transplantation tolerance: heart allograft challenge of long-term surviving recipients; type: in vivo, rat; details: recipients made tolerant with NC1153; n=3
# Protocol: (§2) ACI rat recipients of LEW kidney allografts were treated for 14 days with NC1153 delivered by daily oral gavage. […] ACI rat recipients of LEW kidney allografts were treated for 7 days and thereafter 3×/week up to 90 days with 160 mg/kg NC1153 delivered by daily oral gavage. […] The mechanism of tolerance was examined when irradiated (400 rads) ACI recipients of LEW heart allografts were adoptively transferred with 30×10^6 purified T cells from tolerant recipients.
# [3] = tested on: LEW or third-party heart allografts; assay: Adoptive transfer of T cells from tolerant recipients into irradiated ACI heart allograft recipients; type: in vivo, rat
# Protocol: as §2
# Lck = Lck (Homo sapiens, UniProt P06239); assay: Tyrosine phosphorylation of activated Lck in YT cells; type: cell-based; design: Cellular extracts were immunoprecipitated with anti-Fyn or anti-Lck antibodies; endogenous in cells; host or cells: YT cells; details: 1-100 μM, 2 hours
# Lck, sequence (P06239 whole entry): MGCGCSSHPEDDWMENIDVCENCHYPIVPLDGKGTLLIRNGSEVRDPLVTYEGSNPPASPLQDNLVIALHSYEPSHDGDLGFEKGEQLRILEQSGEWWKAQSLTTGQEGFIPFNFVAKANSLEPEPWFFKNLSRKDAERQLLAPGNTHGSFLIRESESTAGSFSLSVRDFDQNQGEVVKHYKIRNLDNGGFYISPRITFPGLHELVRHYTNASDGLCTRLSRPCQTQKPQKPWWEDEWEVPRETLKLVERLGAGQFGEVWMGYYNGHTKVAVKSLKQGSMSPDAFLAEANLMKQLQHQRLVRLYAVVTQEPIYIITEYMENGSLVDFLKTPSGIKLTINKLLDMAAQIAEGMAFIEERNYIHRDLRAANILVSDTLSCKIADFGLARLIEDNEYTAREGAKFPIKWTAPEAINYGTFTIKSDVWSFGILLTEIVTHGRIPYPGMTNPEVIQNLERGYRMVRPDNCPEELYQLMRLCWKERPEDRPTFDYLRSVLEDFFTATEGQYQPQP
# NF-kB = assay: TNF-α-induced NF-kB DNA binding, EMSA; type: cell-based, human; details: same treatment set
# Protocol: EMSA. Electrophoretic mobility shift assay (EMSA). Drug or vehicle control (DMSO) treated cells were pelleted by centrifugation (20,000×g for 1 min at 4° C.) and subsequently washed in five volumes of 10 mM HEPES, pH 7.9, 10 mM KCl, 1.5 mM MgCl2, 0.5 mM DTT, […], 5 μg/ml aprotinin, 1 μg/ml pepstatin A and 2 μg/ml leupeptin, centrifuged, then lysed in the same buffer supplemented with 1% NP-40 and incubated for 20 min on ice. The nuclei-containing pellet was resuspended in equal volumes of low salt buffer (10 mM HEPES, 25% glycerol, 1.5 mM MgCl2, 20 mM KCl, 0.5 mM DTT, 0.2 mM EDTA and protease inhibitors) and high salt buffer (low salt buffer containing 800 mM KCl). This fraction was then isolated by centrifugation at 4° C. for 10 min and supernatants saved as nuclear protein extract and stored at −70° C. Gel mobility shift assays were performed to detect Stat5a/b DNA binding activity using a Stat5 DNA binding sequence corresponding to the promoter of the β-casein gene (5′-[…]-3′) or an NF-kB binding element (5′-[…]-3′). Both probes were end-labeled with [^32P]dATP. […]
# as §1
smiles,measurement,setting,value
CN(C)CC1CCCCCCCCCC(CN(C)C)C1=O (mixture of isomers) [649641P (NC1153)],Jak2/Stat5a activation by prolactin,[1],fails to inhibit
same,survival of LEW donor heart allografts in long-term surviving recipients,[2],> 100 days
same,survival of third-party BUF heart allografts in long-term surviving recipients,[2],7.0±1.0 days
same,rejection of LEW heart allografts after transfer of tolerant T cells,"[3]; irradiated (400 rads) ACI recipients, 30×10^6 T cells from NC1153-tolerant recipients, irradiated controls 15±1.0",40.0±15.0 days
same,rejection of third-party heart allografts after transfer of tolerant T cells,"[3]; irradiated ACI recipients, T cells from NC1153-tolerant recipients, n=2",12±1.0 days
same,activity (tyrosine phosphorylation) of Lck,Lck,no effect; also recorded: does not block the activity; also recorded: did not inhibit
same,NF-kB activation / DNA binding by TNF-α (EMSA),NF-kB,not affected; also recorded: no effect
same,NF-kB activation / DNA binding by TNF-α (EMSA),NF-kB; listed as NC1153,not affected

# — patent US7365096B2, “Methods for selectively inhibiting Janus tyrosine kinase 3 (Jak3)” (Board of Regents, The University of Texas System, priority 2002, dated 2008)
